Consider one compound from ChEMBL document CHEMBL1126890, “A tight binding inhibitor of 5-aminoimidazole ribonucleotide carboxylase” (J Med Chem, 1993).

In general, Ki refers to a measure of affinity in units of concentration, obtained from inhibition or displacement.

Common to all, as to design: species or system Aves
Test [1] is described as follows: Changes in free energy concentration.
Test [2] can be described thus: Inhibition of Avian AIR carboxylase in presence of 0.5 nM of the compound.
A short description of test [3]: Kobs versus inhibitory concentration.

With `Nc1c([N+](=O)[O-])ncn1[C@@H]1O[C@H](COP(=O)(O)O)[C@@H](O)[C@H]1O`, the values for the Ki in test [1], in test [2] and in test [3] were 1.6 nM, 1.3 nM and 1.4 nM, respectively.
